Results on two compounds are retold here after US9044485B2, “Ceftolozane antibiotic compositions” (priority 2013, dated 2015).

In one series the test system is P. aeruginosa. The series can be described thus: Minimum inhibitory concentration (MIC90). The format is cell-based. Particulars: Pseudomonas aeruginosa.
A short description of series [1]: Intrinsic pH of ceftolozane in solution. The format is physicochemical. The note with it: in solution (2%).
The next series concerns Enterobacteriaceae. The series can be described thus: In vitro activity against Gram-positive and Gram-negative bacteria (surveillance data). Particulars: against Acinetobacter spp. and common species of Enterobacteriaceae. The format is cell-based. As to the method:
The in vitro activity of ceftolozane and ceftolozane/tazobactam was evaluated against a broad range of Gram-positive and Gram-negative bacteria.

Usually MIC90 stands for the lowest concentration that inhibits either 90% of growth or 90% of the strains tested, depending on the study. The compound `Cn1c(N)c(NC(=O)NCCN)c[n+]1CC1=C(C(=O)O)N2C(=O)[C@@H](NC(=O)/C(=N\OC(C)(C)C(=O)O)c3nsc(N)n3)[C@H]2SC1` [ceftolozane, (6R,7R)-3-[(5-amino-4-{[(2-aminoethyl)carbamoyl]amino}-1-methyl-1H-pyrazol-2-ium-2-yl)methyl]-7-({(2Z)-2-(5-amino-1,2,4-thiadiazol-3-yl)-2-[(1-carboxy-1-methylethoxy)imino]acetyl}amino)-8-oxo-5-thia-1-azabicyclo[4.2.0]oct-2-ene-2-carboxylate] had an MIC90 in the series with P. aeruginosa of no more than 2 µg/mL. In addition, in series [1], the “intrinsic pH” value was determined as 1.92.
Regarding `C[C@]1(Cn2ccnn2)[C@H](C(=O)O)N2C(=O)C[C@H]2S1(=O)=O` [tazobactam, (2S,3S,5R)-3-methyl-7-oxo-3-(1H-1,2,3-triazol-1-ylmethyl)-4-thia-1-azabicyclo[3.2.0]heptane-2-carboxylic acid 4,4-dioxide], the “effect on in vitro activity of ceftolozane (in words)” value in the series with Enterobacteriaceae is given as “potentiated the activity of ceftolozane”.
